Measurements reported in paper PMC7663597, “Structure–Activity Relationship of Aloperine Derivatives as New Anti–Liver Fibrogenic Agents” (Molecules, 2020).

Experiments:
COL1A1 promotor = COL1A1 promotor luciferase reporter gene assay in TGF-β1-treated LX-2 cells; type: cell-based, human; settings: Homo sapiens; for inhibition at 40 µM / inhibition at 80 µM: LX-2, 24 h; for inhibition at 40 µM: 24 h with TGF-β1, read-out: Inhibition Percentage 40 μM (inhibition rate of COL1A1 promotor's activity); for inhibition at 80 µM: 24 h with TGF-β1, read-out: Inhibition Percentage 80 μM (inhibition rate of COL1A1 promotor's activity); for IC50: read-out: IC50 (concentration required to inhibit 50% of COL1A1 promotor's activity)
Protocol: A single luciferase reporter gene detection model was applied to evaluate the inhibitory effects of all target compounds on the expression of COL1A1 promotor in human hepatic stellate LX-2 cells at the concentrations of 40 and 80 μM, taking EGCG as the positive control. The LX-2 cell lines were transfected with COL1A1 promotor luciferase plasmid pGL4.17-COL1A1P for 24 h, then simultaneously treated with TGF-β1 and a tested compound for 24 h.
(§1) Cells were maintained on Dulbecco’s Modified Eagle’s medium (DMEM), laid on 96-well plate. DMEM medium was supplemented with 10% fetal bovine serum (FBS) at 37 °C humidified atmosphere with 5% CO2. Furthermore, serum-free culture was required until the cells were confluent at 90−95%. 24 h later the cells were treated with a tested compound (40 and 80 μM) for 24 h. The COL1A1 promotor activity was detected by the Bright-Glo luciferase assay system. Alternatively, to test the acute effects of compound on luciferase activity, 24 h later the cells were lysed and the lysate was treated with a tested compound (80 μM) for 2 h, then the luciferase was detected by the Bright-Glo luciferase assay system (Promega, Madison, WI, USA).

TGFB1 mRNA = test: RT-PCR of TGFB1 mRNA in LX-2 cells; type: cell-based, human; settings: TGF-β1 (2 ng/mL) stimulation, 24 h
Protocol: (§2) In the absence or presence of TGF-β1 (2 ng/mL) treatment, LX-2 cells were treated with key compounds 4n and 4p at concentrations of 6 μM and 12 μM, or 4i at a concentration of 12 μM, respectively.
Since the stimulation of TGF-β1 provokes the expression of a series of fibrosis genes, for example COL1A1 and TGFB1 [24, 25], the effects of key compounds on TGF-β1 expression were evaluated by RT-PCR and western blot assays. As shown in Figure 2B and Supplementary Table S1, the expression of TGFB1 mRNA was maintained at a low level, and the addition of a key compound seemed to have little effect on its expression.
(§3) LX-2 cells were laid on 6-well plate and cultured in DMEM supplemented with 10% fetal bovine serum (FBS) in a 5% CO2 atmosphere at 37 °C. And serum-free culture was required until the cells reached 90−95% confluence. After 24 h, cells were incubated with 40 and 80 μM concentrations of aloperine derivatives in the presence of 2 ng/mL of TGF-β1 for 24 h. Total RNA of the LX-2 cells was isolated using TRIzol reagent, purified using NucleoSpin RNA Clean-up. Reverse transcription was performed with Transcriptor first strand cDNA synthesis kit. Subsequently, the cDNA levels was determined by ABI 7500 Fast Real-Time PCR System using TaqMan probes of COL1A1, TGF-β1, α-SMA, and GAPDH (sequence not disclosed by ABI) and FastStart Universal Probe master mix (Roche, Indianapolis, IN, USA).

in vivo = settings: both sexes, Kunming, mouse, po
Protocol: (§4) To evaluate the safety profiles of the key compounds 4i, 4n and 4p, an acute toxicity test was performed in Kunming mice. Compound 4i was given orally in a single-dosing experiment at 100, 300 and 400 mg kg^−1, while 4n at 300, 400, 500 mg kg^−1, and 4p at 200, 400, 500 mg kg^−1. The mice were closely monitored for 7 days.
(§5) Male and Female Kunming mice with weight of 20.0 ±1.0 g were obtained from the Institute of Laboratory Animal Science (Beijing, China). Animals wer e cared according to the institutional guidelines of the Institute of Medicinal Biotechnology, CAMS&PUMC (IMB-20190610D3), and fed with regular rodent chow and housed in an air conditioned room. The mice were randomly divided into different groups with four male mice and four female mice each. Each compound was given orally in a single-dosing experiment, the dose of 4i was 100, 300 and 400 mg kg^−1, the dose of 4n was 300, 400, 500 mg kg^−1, the dose of 4p was 200, 400, 500 mg kg^−1 (ddH2O as control). The mice were closely monitored for 7 days. Body weight as well as survival was monitored.

Kunming mice = test: in vivo; settings: both, mouse, po, 7 days
Protocol: as §4, §5

COL1A1 mRNA = test: RT-PCR of COL1A1 mRNA in LX-2 cells; type: cell-based, human; settings: 24 h
Protocol: as §2
as §3, with “After 24 h, cells were incubated with 40 and 80 μM concentrations of aloperine derivatives in the presence of 2 ng/mL of TGF-β1 for 24 h.” left out

[1] = LX-2 cell survival, sulforhodamine B (SRB) assay; type: cell-based; settings: human, LX-2 cells
Protocol: LX-2 cell survival was measured by sulforhodamine B (SRB) assay. The cells were seeded in 96-well plates at the density of 2 × 10^4/well and cultured in DMEM/GlutaMAX I medium with 10% fetal bovine serum (FBS) with 5% CO2, 37 °C. The cells were treated by the aloperine derivates for 24 h, washed by PBS for three times. Then the cells were fixed with 10% (wt/vol) trichloroacetic acid for 1 h and stained with SRB for 0.5 h. Subsequently, the protein-bound dye was dissolved in 10 mM Tris base solution after removing excess SRB dye washing repeatedly with 1% (vol/vol) acetic acid, the optical density (OD) was determined at 510 nm with a microplate reader.

luciferase = biological target: T1, luciferase (Photinus pyralis, UniProt P08659, K549A/L550V/N119G/N50D/S548I); test: Acute effect on luciferase activity (cell lysate, 2 h); type: biochemical; settings: 80 μM, 2-h treatment
T1 construct: expressed in transfected cells; host or cells: human hepatic stellate LX-2 cells transfected with pGL4.17-COL1A1P; lysate used
Protocol: Then, their anti-COL1A1 potencies were verified by testing the half maximal inhibition concentration (IC50) values upon COL1A1 expression expression in LX-2 cells. […] Then, compounds 4i, 4n and 4p with the lower IC50 values were selected as the key compounds for further studies.
as §1

[2] = TGF-β1 (2 ng/mL) stimulation, 6 μM
[3] = TGF-β1 (2 ng/mL) stimulation, 12 μM

T1 sequence (P08659 whole entry N50D/N119G/S548I/K549A/L550V): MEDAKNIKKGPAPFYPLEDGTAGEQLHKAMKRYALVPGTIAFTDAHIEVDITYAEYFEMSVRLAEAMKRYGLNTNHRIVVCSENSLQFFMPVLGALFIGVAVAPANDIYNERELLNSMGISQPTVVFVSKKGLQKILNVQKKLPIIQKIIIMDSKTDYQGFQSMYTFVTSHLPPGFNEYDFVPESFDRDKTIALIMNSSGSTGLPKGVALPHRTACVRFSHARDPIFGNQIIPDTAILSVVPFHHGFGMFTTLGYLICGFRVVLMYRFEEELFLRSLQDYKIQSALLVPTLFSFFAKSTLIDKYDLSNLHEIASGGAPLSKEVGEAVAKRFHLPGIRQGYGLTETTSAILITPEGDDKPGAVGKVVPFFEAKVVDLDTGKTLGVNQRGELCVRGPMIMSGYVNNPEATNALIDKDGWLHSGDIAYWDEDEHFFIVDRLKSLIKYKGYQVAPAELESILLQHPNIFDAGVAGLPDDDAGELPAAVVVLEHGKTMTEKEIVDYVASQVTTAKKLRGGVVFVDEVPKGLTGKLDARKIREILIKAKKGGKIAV

| SMILES | inhibition at 40 µM (COL1A1 promotor) [%] | inhibition at 80 µM (COL1A1 promotor) [%] | IC50 (COL1A1 promotor) [µM] | Inhibitory rate of TGFB1 mRNA expression (TGFB1 mRNA; 6 μM) [%] | Inhibitory rate of TGFB1 mRNA expression (TGFB1 mRNA; 12 μM) [%] | LD50 at 7 days (in vivo) [mg/kg] | median lethal dose (LD50) (Kunming mice) [mg/kg] | Inhibitory rate of COL1A1 transcription (mRNA) (COL1A1 mRNA; [2]) [%] | Inhibitory rate of COL1A1 transcription (mRNA) (COL1A1 mRNA; [3]) [%] | Inhibitory rate of COL1A1 transcription (mRNA) (COL1A1 mRNA; absence of TGF-β1, 6 μM) [%] | Inhibitory rate of COL1A1 transcription (mRNA) (COL1A1 mRNA; absence of TGF-β1, 12 μM) [%] | CC50 at 24 h [1] [µM] | Acute effect on luciferase activity (luciferase) |
| --- | --- | --- | --- | --- | --- | --- | --- | --- | --- | --- | --- | --- | --- |
| O=C(CN1CCCC2=C[C@H]3C[C@H](CN4CCCC[C@H]34)[C@@H]21)N1c2ccccc2Oc2ccccc21 [4p, 12N-N′-Phenoxazinylcarbamoylmethyl aloperine] | 72.2 ± 1.5 | 99.1 ± 1 | 16.5 ± 0.4 | 60.8 | 63.8 | 400 | 400 | 99.5 | 102.9 | 38 | 42 | 34.8 ± 2.9 | minimal inhibition |
| O=C(CN1CCCC2=C[C@H]3C[C@H](CN4CCCC[C@H]34)[C@@H]21)N(c1ccccc1)c1ccc2ccccc2c1 [4n, 12N-(N’-(Naphthalen-2-yl)-N’-phenyl)carbamoylmethyl aloperine] | 99.9 ± 0.1 | 100 | 13.3 ± 0.5 | 57.7 | 60.0 | 500 | 500 | 76.0 | 84.5 | 42 | 47 | 17.1 ± 5.4 | minimal inhibition |
